Laboratory results: patent publication US11998610B2, “Conjugates and methods of using the same” (Flagship Pioneering Innovations V, Inc., priority 2018, dated 2024)
Non-standard residues stand in square brackets, D forms with d. Residues, ends and D or L forms follow the SMILES beside them. *: point of attachment. Myristoyl = CCCCCCCCCCCCCC(=O)*; PhAc = O=C(Cc1ccccc1)*

What was measured:
[1] = tested on: E. coli BL21(DE3); assay: Cell-based assay with ClbP with LCMS, ClbP negative strain; conditions: 10 μM compound, 37° C., 20 h
Method: (§1) This example is representative of the methods described in Example 97. ClbP was tested for its ability to activate compounds. […] Each of these three strains was struck out onto an appropriate solid media such as LB agar or BHI agar. The bacteria were then grown aerobically overnight at 37° C.
(§2) A single colony was isolated from the plate and inoculated into 10 mL LB. The liquid cultures were grown overnight aerobically at 37° C. with rocking on a nutator.
(§3) The saturated E. coli cultures were transferred into a biosafety cabinet. 5 μL of each culture was inoculated into fresh LB broth (200 μL total, 1:40 (v/v) dilution of the overnight culture), and the tested compound was added to a final concentration of 10 μM. To establish the native stability of the compound in media alone, the compound was also added to uninoculated media at a final concentration of 10 μM. Each compound was tested in duplicate with each strain or the media-alone incubation. The plate was sealed and incubated aerobically on a nutator at 37° C. for 20 h.
(§4) After 20 h, the reactions were stopped by addition of 200 μL acetonitrile. The contents of each well were mixed, and then the plate was centrifuged (4,000 rpm, 10 min). The plate was diluted serially to a final dilution of 1:100 first with Acetonitrile (10× dilution) and then with (4:1) Mobile Phase A-20 mM ammonium formate+water:Mobile Phase B-Isopropanol:Methanol:Water (4:4:2)+20 mM ammonium formate (10× dilution).
(§5) The amount of each remaining parent compound in each incubation was quantified by LC-MS analysis, with multiple-reaction monitoring targeting transitions specific to each parent compound.
(§6) The amount of compound present in the media-alone condition was normalized to 100%. The amount of parent compound present in the reaction with the ClbP-encoding E. coli (E. coli CFT073 ATCC 700928 and/or E. coli Nissle 1917) was compared to the amount present in the media-alone and expressed as a percent. Likewise, the amount of parent compound present in the reaction with the negative control E. coli BL21(DE3) was compared to the amount present in the media-alone and expressed as a percent.
(§7) In an ideal case, the amount of residual starting material in the reaction(s) with ClbP-encoding E. coli was <25% of the amount in the E. coli BL21(DE3) and media-alone conditions. In an acceptable case, the amount of residual starting material in the reaction(s) with ClbP-encoding E. coli was 25-75% of the amount in the E. coli BL21(DE3) and media-alone conditions. In a non-preferred case, the amount of residual starting material in the reaction(s) with ClbP-encoding E. coli was >75% of the amount in the E. coli BL21(DE3) and media-alone conditions.

[2] = tested on: E. coli CFT073 ATCC 700928 and/or E. coli Nissle 1917; assay: Cell-based assay with ClbP with LCMS, ClbP positive strain; conditions: ClbP-encoding E. coli, 10 μM compound, 37° C., 20 h
Method: as §1, §2, §3, §4, §5, §6, §7

[3] = In vitro Colonic Material Stability Assay; type: in vitro ADME; conditions: colonic material slurry, anaerobic, 1 or 10 μM, 24 h
Method: Assay 3 In vitro Colonic Material Stability Assay. This assay was used to assess the stability of an acylated active agent in a large intestine. All experiments were performed in an anaerobic chamber containing 90% nitrogen, 5% hydrogen and 5% carbon dioxide. Colonic material was resuspended as a slurry (15% w/v final concentration) in pre-reduced, anaerobically sterilized dilution blanks (Anaerobe Systems AS-908). The colonic material was then inoculated into 96 well plates containing YCFAC media (Anaerobe Systems AS-680) or other suitable media (6.7 μL slurry into 1 mL total media). Compounds or groups of compounds were added to each individual well to reach a final analyte concentration of 1 or 10 μM, and the material was mixed by pipetting. Sample was removed after set timepoints (0, 120, 240, 480, 1440, 2880 minutes after initiation of the assay), quenched with acetonitrile containing internal standard, and analyzed by LC/MS.

[4] = Stability of conjugates in Simulated Gastric Fluid (SGF); type: in vitro ADME; conditions: simulated gastric fluid pH 1.6 with pepsin, 1 μM, 37° C.
Method: Assay 1. Stability of conjugates in Simulated Gastric Fluid (SGF). This assay was used to assess the stability of a conjugate in a stomach. Medium was prepared by dissolving 2 g of sodium chloride in 0.6 L in ultrapure water (MilliQ®, Millipore Sigma, Darmstadt, Germany). The pH was adjusted to 1.6 with 1N hydrochloric acid, and the volume was then adjusted to 1 L with purified water. 60 mg FaSSIF powder (Biorelevant™, London, UK) were dissolved in 500 mL buffer (above). Pepsin was added (0.1 mg/mL) (Millipore Sigma, Darmstadt, Germany), and the solution was stirred. The resulting SGF media were used fresh for each experiment. Test compounds were dissolved in DMSO stock to 1 mM. An aliquot of the DMSO stock solution was removed and diluted in the SGF Media in 15 mL falcon tubes to generate a total compound concentration of 1 μM. A 1 mL aliquot was immediately removed and diluted once with 1 volume of acetonitrile for T0 timepoint. The mixture was sealed and mixed at 37° C. in an incubator. Aliquots (1 mL) were removed at regular intervals and immediately quenched by the addition of 1 volume of acetonitrile. The resulting samples were analyzed by LC/MS to determine degradation rates in SGF.

[5] = Stability of conjugates in Simulated Intestinal Fluid (SIF); type: in vitro ADME; conditions: simulated intestinal fluid pH 6.7 with pancreatin, 1 μM, 37° C.
Method: Assay 2. Stability of conjugates in Simulated Intestinal Fluid (SIF). This assay was used to assess the stability of a conjugate in a small intestine. Phosphate buffer was prepared by dissolving 0.42 g of sodium hydroxide pellets and 3.95 g of monobasic sodium phosphate monohydrate and 6.19 g of sodium chloride in ultrapure water (MilliQ®, Millipore Sigma, Darmstadt, Germany). The pH was adjusted to 6.7 using aq. HCl and aq. NaOH, as necessary, and the solution was diluted with ultrapure water to produce 1 L of the pH 6.7 buffer. 112 mg FaSSIF powder (Biorelevant™, London, UK) was dissolved in 50 mL of the pH 6.7 buffer. 2 to 3 mL of the resulting solution were then added to 500 mg pancreatin (Millipore Sigma, Darmstadt, Germany). The resulting mixture was agitated by finger tapping the vessel containing the mixture until milky suspension formed. At this time, the remainder of the 50 mL FaSSiF/pH 6.7 buffer solution was added. The resulting suspension was flipped upside down 10 times to produce SIF, which was used fresh. Test compounds were dissolved in DMSO stock to 1 mM. An aliquot of the DMSO stock solution was removed and diluted in the SIF media in 15 mL falcon tubes to produce a mixture with a tested compound concentration of 1 μM. A 1 mL aliquot was immediately removed and diluted once with 1 volume of acetonitrile for T0 timepoint. The mixture was sealed and agitated at 37° C. in an incubator. Aliquots (1 mL) were removed at regular intervals and immediately quenched by the addition of 1 volume of acetonitrile. The resulting samples were analyzed by LC/MS to determine degradation rates

SMILES | % Remaining in ClbP Negative Relative to Media-Only [1] | % Remaining in ClbP Positve Relative to Media-Only [2] | Assay 3 (% Remaining at 24 h) [3] | Assay 1 (SGF) (% Remaining @ 1 hours) [4] | Assay 2 (SIF) (% @ Remaining 4 hours) [5]
CCCCCCCCCCCCCC(=O)N[C@H](CC(N)=O)C(=O)N[C@H](C(=O)OC)C(C)C [Example 3, Methyl tetradecanoyl-D-asparaginyl-L-valinate] (Myristoyl-[dN]-Val-OMe) | + (between 25-75% compound remaining in the 20 μM WT ClbP reaction relative to the no-enzyme control) | + (between 25-75% compound remaining in the 20 μM WT ClbP reaction relative to the no-enzyme control) | B (25-75% of the tested compound remaining) | C (>75% of the tested compound remaining) | C (>75% of the tested compound remaining)
COC(=O)[C@H](C)NC(=O)[C@@H](CC(N)=O)NC(=O)Cc1ccccc1 [Example 14, Methyl (2-phenylacetyl)-D-asparaginyl-L-alaninate] (PhAc-[dN]-Ala-OMe) | − (>75% compound remaining in the 20 μM WT ClbP reaction relative to the no-enzyme control) | + (between 25-75% compound remaining in the 20 μM WT ClbP reaction relative to the no-enzyme control) | C (>75% of the tested compound remaining) | C (>75% of the tested compound remaining) | A (<25% of the tested compound remaining)
COC(=O)[C@H](C)NC(=O)[C@@H](CC(N)=O)NC(=O)c1ccccc1O [Example 16, Methyl (2-hydroxybenzoyl)-D-asparaginyl-L-alaninate] | + (between 25-75% compound remaining in the 20 μM WT ClbP reaction relative to the no-enzyme control) | + (between 25-75% compound remaining in the 20 μM WT ClbP reaction relative to the no-enzyme control) | B (25-75% of the tested compound remaining) | C (>75% of the tested compound remaining) | A (<25% of the tested compound remaining)
COC(=O)[C@H](C)NC(=O)[C@@H](CC(N)=O)NC(=O)C(C)c1ccc(CC(C)C)cc1 (stereo partly drawn) [Example 17, Methyl (2-(4-isobutylphenyl)propanoyl)-D-asparaginyl-L-alaninate] | + (between 25-75% compound remaining in the 20 μM WT ClbP reaction relative to the no-enzyme control) | + (between 25-75% compound remaining in the 20 μM WT ClbP reaction relative to the no-enzyme control) | C (>75% of the tested compound remaining) | C (>75% of the tested compound remaining) | A (<25% of the tested compound remaining)
CCCCCCCC(=O)N[C@H](CC(N)=O)C(=O)NCCCC(=O)OC [Example 43, Methyl (R)-4-(4-amino-2-octanamido-4-oxobutanamido)butanoate] | − (>75% compound remaining in the 20 μM WT ClbP reaction relative to the no-enzyme control) | − (>75% compound remaining in the 20 μM WT ClbP reaction relative to the no-enzyme control) | B (25-75% of the tested compound remaining) | B (25-75% of the tested compound remaining) | B (25-75% of the tested compound remaining)
CCCCCCCC(=O)N[C@H](CC(N)=O)C(=O)N[C@@H](C)CCC(=O)Oc1ccc(Br)cc1 [Example 47, 4-bromophenyl (S)-4-((R)-4-amino-2-octanamido-4-oxobutanamido)pentanoate] | − (>75% compound remaining in the 20 μM WT ClbP reaction relative to the no-enzyme control) | − (>75% compound remaining in the 20 μM WT ClbP reaction relative to the no-enzyme control) | A (<25% of the tested compound remaining) | C (>75% of the tested compound remaining) | A (<25% of the tested compound remaining)
CCCCCCCC(=O)N[C@H](CC(N)=O)C(=O)N[C@@H](C)CCC(=O)O[C@]1(CC)C(=O)OCc2c1cc1n(c2=O)Cc2c-1nc1ccc(O)cc1c2CC [Example 49, (S)-4,11-diethyl-9-hydroxy-3,14-dioxo-3,4,12,14-tetrahydro-1H-pyrano[3′,4′:6,7]indolizino[1,2-b]quinolin-4-yl (S)-4-((R)-4-amino-2-octanamido-4-oxobutanamido)pentanoate] | + (between 25-75% compound remaining in the 20 μM WT ClbP reaction relative to the no-enzyme control) | ++ (<25% compound remaining in the 20 μM WT ClbP reaction relative to the control) | C (>75% of the tested compound remaining) | C (>75% of the tested compound remaining) | C (>75% of the tested compound remaining)
COCCOCCC(=O)N[C@H](CC(N)=O)C(=O)N[C@@H](C)C(=O)OC [Example 61, Methyl (3-(2-methoxyethoxy)propanoyl)-D-asparaginyl-L-alaninate] | − (>75% compound remaining in the 20 μM WT ClbP reaction relative to the no-enzyme control) | + (between 25-75% compound remaining in the 20 μM WT ClbP reaction relative to the no-enzyme control) | C (>75% of the tested compound remaining) | C (>75% of the tested compound remaining) | B (25-75% of the tested compound remaining)
